Source: article PMC2766921 (Biochemistry, 2009)

Experiments:
[1] = system: purified bacterial succinyl-CoA synthetase (BSCS); assay: in-gel BN-PAGE GTP hydrolysis assay; type: biochemical, Escherichia coli; details: 8 mM GTP, 20 mM succinate, 0.5 mM CoA, 14 mM MgSO4, pH 7.8, room temperature
[2] = system: purified bacterial succinyl-CoA synthetase (BSCS); assay: in-gel BN-PAGE ATP hydrolysis assay; type: biochemical, Escherichia coli; details: 8 mM ATP, 20 mM succinate, 0.5 mM CoA, 14 mM MgSO4, pH 7.8, room temperature

Chain of purified bacterial succinyl-CoA synthetase (BSCS) (P0AGE9 2-289): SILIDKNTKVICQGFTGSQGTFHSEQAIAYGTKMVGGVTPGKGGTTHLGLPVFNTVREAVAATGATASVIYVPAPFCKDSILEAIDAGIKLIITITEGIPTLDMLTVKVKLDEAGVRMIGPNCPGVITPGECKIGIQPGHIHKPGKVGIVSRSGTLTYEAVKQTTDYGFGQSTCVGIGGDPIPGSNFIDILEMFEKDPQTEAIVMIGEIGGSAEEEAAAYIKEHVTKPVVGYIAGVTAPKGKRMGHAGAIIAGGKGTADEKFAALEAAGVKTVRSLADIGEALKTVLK
Chain of purified bacterial succinyl-CoA synthetase (BSCS) (P0A836 whole entry, further chain): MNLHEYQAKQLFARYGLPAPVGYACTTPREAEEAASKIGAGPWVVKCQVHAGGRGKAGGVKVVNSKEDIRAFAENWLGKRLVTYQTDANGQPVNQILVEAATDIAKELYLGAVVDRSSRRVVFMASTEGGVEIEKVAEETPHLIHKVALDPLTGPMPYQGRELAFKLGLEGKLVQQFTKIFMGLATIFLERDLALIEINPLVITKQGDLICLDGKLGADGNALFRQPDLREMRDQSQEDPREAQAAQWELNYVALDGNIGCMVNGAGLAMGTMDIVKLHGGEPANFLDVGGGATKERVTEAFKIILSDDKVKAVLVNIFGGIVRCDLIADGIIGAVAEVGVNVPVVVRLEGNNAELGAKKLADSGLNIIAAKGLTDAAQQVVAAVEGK

Compound	in-gel BN-PAGE GTP hydrolysis assay (lead phosphate) [1]	in-gel BN-PAGE ATP hydrolysis assay (lead phosphate) [2]
Nc1nc2c(ncn2[C@@H]2O[C@H](COP(=O)(O)OP(=O)(O)OP(=O)(O)O)[C@@H](O)[C@H]2O)c(=O)[nH]1 [GTP]	ATP-dependent activity of BSCS was higher than the GTP-dependent activity	
Nc1ncnc2c1ncn2[C@@H]1O[C@H](COP(=O)(O)OP(=O)(O)OP(=O)(O)O)[C@@H](O)[C@H]1O [ATP]		ATP-dependent activity of BSCS was higher than the GTP-dependent activity
